Laboratory results from ChEMBL document CHEMBL5727723, “(S)-5-ethynyl-anabasine, derivatives thereof, and related compositions and methods of making and using” (2020).

Experiment: functional assay: Nematode eggs are isolated from fresh feces by centrifugation and flotation. The eggs are washed and inspected to confirm embryonation has not started. Each sample is tested at six concentrations of a test compound (e.g., 0.02, 0.05, 0.1, 0.25, 0.5 and 1.0 μg/ml) and a negative control (no compound). After incubation for 48 h, the assay is ended, and all eggs and larvae present in each well are counted. The Hill equation with a variable slope is used to fit the dose-response relations using GraphPad Prism. The EC50-values and 95% confidence intervals are calculated.

| SMILES | EC50 [µM] |
| --- | --- |
| CN1CCCCC1c1cccnc1 (centres undefined) | < 100 |
| CN1CCC[C@H]1c1ccc[n+](C)c1 | < 100 |
| CN1CCCC1c1ccc(N)nc1 (centres undefined) | 12.2 |
| CN1C(=O)CC[C@H]1c1cccnc1 [COTININE] | < 100 |
